Data as given in patent publication US20220395522A1, “Methods of Use of Glucosamine for Increasing Nitrogen Retention” (TSI Bioproducts (Xuzhou) Co., Ltd., priority 2021, published 2022).
Read-outs that look alike come from different tables or passages of the source.

Format: in vivo, human
Details: for Fecal 3-Hydroxybutyrate / Fecal Acetate / Fecal Alanine / Fecal Butyrate / Fecal Cadaverine / Fecal Ethanol / Fecal Formate / Fecal Fumarate / Fecal Glucose / Fecal Glutamate / Fecal Glycerol / Fecal Glycine / Fecal Hypoxanthine / Fecal Isobutyrate / Fecal Isoleucine / Fecal Isovalerate / Fecal Lactate / Fecal Leucine / Fecal Lysine / Fecal Methionine / Fecal Methionine-sulfoxide / Fecal N-Acetylglucosamine / Fecal Nicotinate / Fecal Phenylacetate / Fecal Phenylalanine / Fecal Proline / Fecal Propionate / Fecal Putrescine / Fecal Ribose / Fecal Succinate / Fecal Threonine / Fecal Total AA / Fecal Total BCAAs / Fecal Total SCFA / Fecal Tyrosine / Fecal Uracil / Fecal Urocanate / Fecal Valerate / Fecal Valine / Fecal Xylose / Fecal p-Cresol: GLU condition, mean ± SD
From the text: Stool specimens were collected at four time points throughout the entire study protocol. The first two samples were collected before and after the first supplementation period while the final two samples were collected before and after the second supplementation period. All stool specimens were collected no more than 24-hours prior to that study participant being scheduled to complete their laboratory visit. All samples were immediately frozen after sample collection by the study participants. Participants were instructed to keep their samples in the freezer and to remove them at the latest possible time to minimize thawing during transfer to the laboratory for storage. Participants were provided with all materials necessary to collect, store, and transport the stool specimen including commode fecal collection system, fecal collection tubes with screw top lids and scoops attached, disposable gloves, freezer packs, specimen labels, and transfer containers. Participants were instructed to raise the toilet seat and place the stool collection frame on the back of the toilet bowl and then lower the toilet seat down and place collection bowl in frame. Participants then sat on the toilet and collected a stool sample into the container. Participants were instructed, if possible, to not urinate into the collection container. Participants then extracted a representative stool sample and filled each of the two provided sample collection tubes. Tubes were then secured, labeled, and frozen. All remaining stool was discarded into the toilet and flushed. Upon arrival in the laboratory each sample was immediately stored at −80° C.
A Fecal Metabolome Analysis was further conducted. Samples were manually homogenized with a sterile microspatula, and approximately 250 mg of fecal material was weighed and extracted using 1.5 mL of ice-cold Dulbecco's phosphate buffered saline (DPBS, 1×, pH 7.4). After extraction, samples were centrifuged, and the pellet was dried using a Labconco FreeZone 4.5 L Freeze Dry System to determine fecal dry weight. The supernatant was sequentially filtered through a 0.22 μm pore-size syringe filter (Millex-GP syringe filter, Millipore, Billerica, Mass.) to remove microbes followed by a 3 kDa ultracentrifugal filter (Amicon ultracentrifugal filter, Millipore, Billerica, Mass.) to remove any excess proteins. To 207 […], 23 […] (5 mM DSS-d6 (trimethylsilylpropanesulfonate) containing 0.2% NaN3 in 99.8% D20 was added to aid in quantification of metabolites. The pH of each sample was adjusted to 6.8±0.1 through addition of small amounts of NaOH or HCl. Samples were transferred to 3 mm Bruker NMR tubes (Bruker, Brillerica, Mass.) and stored at 4° C. until spectral acquisition. Nuclear magnetic resonance (NMR) spectra were acquired using a Bruker Avance 600 MHz NMR spectrometer equipped with a SampleJet autosampler (Bruker BioSpin, Germany) at 298 K using the NOESY 1H presaturation experiment (‘noesypr1d’). Data were acquired with a spectral width of 12 ppm, a 2.5-second acquisition time, a relaxation delay of 2.5 seconds, and a 100-millisecond mixing time using 32 transients and 8 dummy scans. Water saturation was applied during the relaxation delay and mixing time. Each spectrum was Fourier Transformed with zero filling to 128,000 data points, and the resulting Free Induction Decay (FID) was transformed with an exponential apodization function corresponding to a line-broadening of 0.5 Hz. Spectra were subsequently phased and baseline corrected using Chenomx NMRSuite Processor v8.3 (Chenomx Inc., Edmonton, Canada). Metabolites were identified and quantified based on the known concentration of the internal standard, using Chenomx NMRSuite Profiler v8.3 based on the established method of targeted profiling.

[1] = Post 21 days, 3 x 1,000 mg/day oral

Cl.N[C@H]1C(O)O[C@H](CO)[C@@H](O)[C@@H]1O (some centres unmarked) [GLU, glucosamine hydrochloride]
Fecal 3-Hydroxybutyrate [1]: 76 ± 35
Fecal Acetate [1]: 43,680 ± 11,351
Fecal Alanine [1]: 2228 ± 721
Fecal Butyrate [1]: 13,538 ± 6558
Fecal Cadaverine [1]: 165 ± 56
Fecal Ethanol [1]: 272 ± 187
Fecal Formate [1]: 403 ± 299
Fecal Fumarate [1]: 218 ± 115
Fecal Glucose [1]: 3334 ± 2753
Fecal Glutamate [1]: 6773 ± 2223
Fecal Glycerol [1]: 6397 ± 3575
Fecal Glycine [1]: 965 ± 399
Fecal Hypoxanthine [1]: 325 ± 143
Fecal Isobutyrate [1]: 1956 ± 1334
Fecal Isoleucine [1]: 777 ± 388
Fecal Isovalerate [1]: 1712 ± 1304
Fecal Lactate [1]: 172 ± 396
Fecal Leucine [1]: 1094 ± 496
Fecal Lysine [1]: 1454 ± 554
Fecal Methionine [1]: 352 ± 210
Fecal Methionine-sulfoxide [1]: 202 ± 149
Fecal N-Acetylglucosamine [1]: 187 ± 152
Fecal Nicotinate [1]: 271 ± 106
Fecal Phenylacetate [1]: 999 ± 786
Fecal Phenylalanine [1]: 544 ± 208
Fecal Proline [1]: 654 ± 326
Fecal Propionate [1]: 12,663 ± 5766
Fecal Putrescine [1]: 115 ± 61
Fecal Ribose [1]: 1332 ± 533
Fecal Succinate [1]: 758 ± 430
Fecal Threonine [1]: 659 ± 252
Fecal Total AA [1]: 17,208 ± 5190
Fecal Total BCAAs [1]: 2873 ± 1312
Fecal Total SCFA [1]: 76,527 ± 25,492
Fecal Tyrosine [1]: 707 ± 273
Fecal Uracil [1]: 684 ± 287
Fecal Urocanate [1]: 85 ± 48
Fecal Valerate [1]: 2574 ± 1519
Fecal Valine [1]: 1003 ± 451
Fecal Xylose [1]: 702 ± 545
Fecal p-Cresol [1]: 551 ± 537
Fecal 3-Hydroxybutyrate (Pre (baseline)): 89 ± 62
Fecal Acetate (Pre (baseline)): 40,675 ± 12,876
Fecal Alanine (Pre (baseline)): 2667 ± 1134
Fecal Butyrate (Pre (baseline)): 11,370 ± 5781
Fecal Cadaverine (Pre (baseline)): 170 ± 52
Fecal Ethanol (Pre (baseline)): 169 ± 98
Fecal Formate (Pre (baseline)): 298 ± 166
Fecal Fumarate (Pre (baseline)): 225 ± 151
Fecal Glucose (Pre (baseline)): 2229 ± 2054
Fecal Glutamate (Pre (baseline)): 8882 ± 3831
Fecal Glycerol (Pre (baseline)): 7458 ± 7347
Fecal Glycine (Pre (baseline)): 1207 ± 514
Fecal Hypoxanthine (Pre (baseline)): 414 ± 190
Fecal Isobutyrate (Pre (baseline)): 2097 ± 887
Fecal Isoleucine (Pre (baseline)): 1029 ± 462
Fecal Isovalerate (Pre (baseline)): 1885 ± 886
Fecal Lactate (Pre (baseline)): 60 ± 49
Fecal Leucine (Pre (baseline)): 1422 ± 622
Fecal Lysine (Pre (baseline)): 1834 ± 815
Fecal Methionine (Pre (baseline)): 424 ± 290
Fecal Methionine-sulfoxide (Pre (baseline)): 258 ± 191
Fecal N-Acetylglucosamine (Pre (baseline)): 249 ± 147
Fecal Nicotinate (Pre (baseline)): 327 ± 162
Fecal Phenylacetate (Pre (baseline)): 1095 ± 511
Fecal Phenylalanine (Pre (baseline)): 629 ± 280
Fecal Proline (Pre (baseline)): 687 ± 280
Fecal Propionate (Pre (baseline)): 12,596 ± 4145
Fecal Putrescine (Pre (baseline)): 92 ± 59
Fecal Ribose (Pre (baseline)): 1428 ± 760
Fecal Succinate (Pre (baseline)): 635 ± 289
Fecal Threonine (Pre (baseline)): 831 ± 355
Fecal Total AA (Pre (baseline)): 21,838 ± 8104
Fecal Total BCAAs (Pre (baseline)): 3802 ± 1674
Fecal Total SCFA (Pre (baseline)): 71,612 ± 22,891
Fecal Tyrosine (Pre (baseline)): 874 ± 394
Fecal Uracil (Pre (baseline)): 922 ± 352
Fecal Urocanate (Pre (baseline)): 104 ± 57
Fecal Valerate (Pre (baseline)): 2691 ± 1314
Fecal Valine (Pre (baseline)): 1351 ± 610
Fecal Xylose (Pre (baseline)): 441 ± 420
Fecal p-Cresol (Pre (baseline)): 597 ± 330
Fecal 3-Hydroxybutyrate, % (PLA vs. GLU, between-group): 4.3%
Fecal Acetate, % (PLA vs. GLU, between-group): 0.5%
Fecal Alanine, % (PLA vs. GLU, between-group): −33.4%
Fecal Butyrate, % (PLA vs. GLU, between-group): 14.3%
Fecal Cadaverine, % (PLA vs. GLU, between-group): −29.1%
Fecal Ethanol, % (PLA vs. GLU, between-group): 123.7%
Fecal Formate, % (PLA vs. GLU, between-group): 30.7%
Fecal Fumarate, % (PLA vs. GLU, between-group): −29.4%
Fecal Glucose, % (PLA vs. GLU, between-group): 61.4%
Fecal Glutamate, % (PLA vs. GLU, between-group): −30.7%
Fecal Glycerol, % (PLA vs. GLU, between-group): −33.0%
Fecal Glycine, % (PLA vs. GLU, between-group): −34.5%
Fecal Hypoxanthine, % (PLA vs. GLU, between-group): −27.1%
Fecal Isobutyrate, % (PLA vs. GLU, between-group): −38.6%
Fecal Isoleucine, % (PLA vs. GLU, between-group): −40.5%
Fecal Isovalerate, % (PLA vs. GLU, between-group): −18.9%
Fecal Lactate, % (PLA vs. GLU, between-group): 107.7%
Fecal Leucine, % (PLA vs. GLU, between-group): −28.4%
Fecal Lysine, % (PLA vs. GLU, between-group): −32.1%
Fecal Methionine, % (PLA vs. GLU, between-group): −23.7%
Fecal Methionine-sulfoxide, % (PLA vs. GLU, between-group): 37.4%
Fecal N-Acetylglucosamine, % (PLA vs. GLU, between-group): −34.9%
Fecal Nicotinate, % (PLA vs. GLU, between-group): −6.6%
Fecal Phenylacetate, % (PLA vs. GLU, between-group): −30.6%
Fecal Phenylalanine, % (PLA vs. GLU, between-group): −15.6%
Fecal Proline, % (PLA vs. GLU, between-group): −5.7%
Fecal Propionate, % (PLA vs. GLU, between-group): −10.0%
Fecal Putrescine, % (PLA vs. GLU, between-group): 5.0%
Fecal Ribose, % (PLA vs. GLU, between-group): −37.4%
Fecal Succinate, % (PLA vs. GLU, between-group): 8.0%
Fecal Threonine, % (PLA vs. GLU, between-group): −31.8%
Fecal Total AA, % (PLA vs. GLU, between-group): −31.0%
Fecal Total BCAAs, % (PLA vs. GLU, between-group): −36.5%
Fecal Total SCFA, % (PLA vs. GLU, between-group): −1.3%
Fecal Tyrosine, % (PLA vs. GLU, between-group): −30.5%
Fecal Uracil, % (PLA vs. GLU, between-group): −34.7%
Fecal Urocanate, % (PLA vs. GLU, between-group): −38.7%
Fecal Valerate, % (PLA vs. GLU, between-group): −36.0%
Fecal Valine, % (PLA vs. GLU, between-group): −42.4%
Fecal Xylose, % (PLA vs. GLU, between-group): 70.8%
Fecal p-Cresol, % (PLA vs. GLU, between-group): −27.7%
Fecal glutamate, isoleucine, leucine and valine content (compared to baseline, p<0.05): significantly reduced
Total amino acids, change (compared to baseline, p<0.05): −21%
Total branched-chain amino acid, change (compared to baseline, p<0.05): −24%
Fecal nucleotides (uracil) (compared to baseline, p=0.02): significantly reduced
Effect on individual or total short-chain fatty acids (p>0.05): no effect
